Measurements reported in US20130209439A1, “INHIBITORS OF PDE4 BINDING TO HSP20” (THE UNIVERSITY COURT OF THE UNIVERSITY OF GLASGOW, priority 2010, published 2013).

Key:
[1] = biological target: T1, His-Hsp20 (Homo sapiens, UniProt O14558); test: SPOT peptide array overlaid with His-Hsp20; type: binding; conditions: overlay with 10 μg/ml purified His-Hsp20
T1 construct: made in house; host or cells: E. coli BL21
T1 sequence (O14558 1-160): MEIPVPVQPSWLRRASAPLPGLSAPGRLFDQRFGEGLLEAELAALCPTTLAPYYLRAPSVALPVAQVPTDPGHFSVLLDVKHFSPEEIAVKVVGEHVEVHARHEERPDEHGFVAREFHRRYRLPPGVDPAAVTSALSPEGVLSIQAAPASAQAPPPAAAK
Description: A variety of peptides were generated and SPOT-synthesised onto slides which were then overlaid with 10 μg/ml of purified His-Hsp20. Interaction with peptides and Hsp20 was evaluated by probing slides with anti-His or Hsp20 antibodies and analysed using enhanced chemi-luminescence techniques, Negative controls used anti-His antibody only with no overlay of His-Hsp20 protein (data not shown). Positive interaction domains were then subjected to further rounds of truncations and key endogenous residues were substituted for non-native residues to ascertain what effects this would have in the binding of Hsp20.
This was done as described in detail elsewhere^41.
PDE4 isoform localisation invariably depends on protein-protein interactions, with PDE4s shown to associate with a diverse group of interacting partners such as RACK1^32, 36, βarrestin^36, β1-Ar^37, DISC1^38, the p75 neurotrophin receptor^39 and the cardiac IKs potassium channel^40. One method that has been pivotal in mapping the sites of association between PDE4s and their binding partners is peptide array^36. SPOT immobilised peptide libraries of PDE4 sequences have been utilised to accurately predict binding domains for partner proteins. Here we have employed this novel technique to define the HSP20 binding site within the sequence of PDE4D5, an isoform that is endogenously expressed in cardiomyocytes. Peptide arrays of overlapping 25-mer peptides, sequentially shifted by 5 amino acids and spanning the entire sequence of PDE4D5, were incubated with purified recombinant HSP20-6his. Dark spots represent positive areas of HSP20 interaction whereas clear spots are negative for the association (FIG. 4A). While no signal was observed when the arrays were overlaid with BSA, positive signals were obtained for 25mer peptides 93 to 96 following HSP20-6His overlay. Peptides 93 to 96 span the amino acid sequence Y^461-K^500 within the conserved catalytic domain of PDE4D5 (FIG. 4A: middle panels). […]

[2] = test system: pS16-Hsp20 in SH-SY5Y cells; test: Cell based Hsp20-PDE4D disruptor assay, nucleofected SH-SY5Y cells, pS16-Hsp20 Western blot; set-up: species or system human; conditions: SH-SY5Y cells nucleofected with 500 μM peptide, 2 hours
Description: FIG. 9. Disrupter induced HSP20 phosphorylation SH-SY5Y cells nucleofected with 500 μM of each peptide and incubated for 2 hours prior to harvesting. Each assay was blotted for Hsp20, pS16-Hsp20 and tubulin. Changes in levels of phospho-Hsp20 relative to DMSO only controls were quantified through densitometry analysis and each assay was normalised to α-tubulin loading control. The results are the average of three separate experiments and error bars represent SEM. *=p<0.05, **=p<0.01 compared to DMSO only controls (Student-T-test)
SDS-PAGE analysis was done on NuPage® pre-cast gels X-cell apparatus (Invitrogen, Paisley) using MES-SDS running buffer, Samples were reduced in Laemmli 2× loading buffer (4% SOS) with 5% β-mercaptoethanol. For Western Blotting (WB) analysis, samples were transferred using NuPage® X-cell blotting module onto a nitrocellulose membrane. Membranes were blocked using 5% Milk in 1×TBST (w/v). Antibodies were incubated in 1% milk in 1×TBST (w/v) for either 1 hour at room temperature or overnight at 4° C. Signals were detected using enhanced chemiluminescence system (Pierce) and developed on an X-omat film developer. Subsequent densitometry analysis was carried out using Quantity One (Bio-Rad).
SH-SY5Y cells (ATCC-CRL-2266) were grown in Dulbecco's Modified Eagle's Medium (DMEM) and F12-Ham's at a 1:1 ratio, media was supplemented with 10% (v/v) fetal bovine serum (FBS), 1% (v/v) L-Glutamine, 1% (v/v) Minimum Essential Medium—With Non-essential Amino Acids (MEM-NAA) and 1% (v/v) Pen/strep. Cells were cultured in a humidified, 5% (v/v) CO2, 37° C. incubator.
SH-SY5Y cells were nucleofected using Cell Line Nucleofector® Kit-V in accordance with manufacturers protocol (Amaxa Biosystems). Setting A-23 on the Nucleofector I device was used which increases cell viability. For each assay, 500 μM of disrupter peptide was incubated with 100 μl of nucleofection solution containing approximately 2×10^6 cells. After nucleofection cells were re-suspended in 500 μl of culture media before being transferred to a 6 well plate with a final volume of 2 ml per well. Cells were incubated for 2 hours prior to harvesting with […] containing protease and phosphatase inhibitors (Roche).
As the cell permeability of the peptides is unknown we used an electroporation technique to introduce the peptides into the SH-SY5Y cells. The Amaxa cell-line specific Nucleofector Kit V (Lonza) was used to transfect the peptides into the cells. […] Each assay used a final concentration of 500 μM of peptide in nucleofector solution containing approximately 2×10^6 SH-SY5Y cells. As peptides were dissolved in 100% DMSO, control transfections with DMSO only were used to compare any changes in phospho-Hsp20 levels. After each transfection the solution was reconstituted in culture media and incubated for 2 hours to allow for cell adhesion prior to the harvesting of viable cells.

[3] = test system: Phospho-Ser16 HSP20 in HEKB2 cells; test: Ser16 phosphorylation of HSP20 in HEKB2 cells overexpressing HSP20 (Western blot); type: cell-based; conditions: HEKB2 cells
Description: FIG. 1. The phosphorylation of HSP20 at Ser16 is modulated by PDE4 activity in HEKB2 cells. A, HEKB2 cells overexpressing HSP20 or HSP20 ser16-Ala mutant were treated with isoprenaline for indicated times. Cellular lysates were blotted for HSP20 and Phospho-Ser16 HSP20. B, HEKB2 cells overexpressing HSP20 were treated with isoprenaline for indicated times, Cellular lysates were blotted for HSP20 and Phospho-Ser16 HSP20. C, HEKB2 cells overexpressing HSP20 were treated with isoprenaline for indicated times following pre-treatment with the PDE4-specific inhibitor, rolipram. Cellular lysates were blotted for HSP20 and Phospho-Ser16 HSP20. D, Quantifications of data from FIGS. 1B and 1C (n=4). * Denotes significance at a level p<0.05 E, Lysate from untransfected HEKB2 cells was blotted for HSP20 and Phospho-Ser16 HSP20.
(§1) HEK293B2 cells are a stable cell line overexpressing the GFP-tagged β2AR were cultured as previously described^48. HEK293B2 cells were transiently transfected with wild type HSP20 or a phosphorylation defective HSP20 (S16A) or a phosphorylation mimic HSP20 (S16D). Neonatal cardiac myocytes were prepared and cultured as previously described^30. Cell lysis, immunopurification and western blotting was done as described before by us in some detail^48. Briefly, HEK 293 cells were transiently transfected with wild-type HSP20 by using Polyfect Transfection Reagent (Qiagen). Transfected HEK 293 cells were treated with 10 μM bs906 or 10 μM control peptide for 0, 15, 30, 60 and 120 min. Control and treated transfected HEK 293 cells were then washed thrice with ice cold PBS (phosphate buffered saline) before cellular lysates were prepared. Cellular lysates were prepared in lysis buffer containing 25 mM Hepes, pH 7.5, 2.5 mM EDTA, 50 mM NaCl, 50 mM NaF, […], 10% (v/v) glycerol, 1% (v/v) Triton X-100 and Complete™ EDTA-free protease inhibitor cocktail tablets (Roche). Protein concentration of lysates were determined using the Bradford assay and all samples were equalised for protein concentration. Proteins were separated by SOS/PAGE (4-12% Bis-Tris gels) and transferred onto nitrocellulose membranes for Western blotting. Antibodies were used to detect phospho-proteins and native proteins in lysates from control and treated cells
In contrast to this, when we transfected these cells with a phospho-null mutant form, Ser16Ala-Hsp20, then no such change was observed (FIG. 1A). In order to evaluate whether PDE4 activity played a role in regulating this phosphorylation process in Hsp20-transfected HEKB2 cells, cells that had either been pre-treated or not with the PDE4 selective inhibitor rolipram were subsequently challenged with isoprenaline (1 μM) (FIGS. 1B and C). […] Endogenous levels of phospho-HSP20 or HSP20 were not detectable in HEKB2 cells (FIG. 1E).

[4] = test system: Phospho-Ser16 HSP20 in neonatal cardiac myocytes; test: Ser16 phosphorylation of endogenous HSP20 in neonatal cardiac myocytes (Western blot); type: cell-based, rat
Description: FIG. 2. The phosphorylation of HSP20 at Ser16 is modulated by PDE4 activity in cardiac myocytes. A, Neonatal cardiac myocytes were treated with isoprenaline for indicated times with or without pre-treatment with the PDE4-specific inhibitor, rolipram. Cellular lysates were blotted for HSP20 and Phospho-Ser16 HSP20. B, Quantifications of data from FIG. 2A (n=3). * Denotes significance at a level p<0.05 over iso treatment.
as §1
To determine whether inhibition of PDE4 activity had similar effects on endogenous phospho-HSP20 levels in heart cells, similar experiments were undertaken using neonatal cardiomyocytes (FIG. 2).

[5] = test system: cAMP in the vicinity of HSP20; test: cAMP FRET with cytosolic and HSP20-targeted reporters in cardiac myocytes; type: cell-based, rat
Description: FIG. 5. Measurement of relative cAMP concentration in the vicinity of HSP20 using targeted cAMP FRET probes. A, Representative traces showing FRET ratios that indicate relative cAMP concentrations measured by cytosolic and HSP20 targeted cAMP reporter constructs. B, Upper panel, graphical depiction of maximum FRET ratios achieved using both cytosolic and HSP20-targeted probes following treatment with isoprenaline (Iso), rolipram (Roli) and IBMX. Lower panel, images of the localisation of cytosolic and HSP20-targeted cAMP reporter constructs.
The Hsp20-targeted cAMP FRET probe was generated by cloning the Hsp20 open reading frame, excluding the stop codon, immediately 5′ to the EPACG-based FRET sensor^55. Hsp20 open reading frame was amplified from the Ultimate™ ORF clone IOH57317 (Invitrogen) using the following primers to incorporate HindIII restriction sites at both 5′ and 3′ ends: Forward 5′-gcacaagctt[…]-3′ (SEQ ID NO: 70) Reverse 5′-gcacaagctt[…]-3′ (SEQ ID NO: 71). […]
Primary cultures of ventricular cardiac myocytes were prepared from 1-3 day old Sprague-Dawley rats, as described above. […] FRET changes were measured following background subtraction by dividing the intensity of emissions at 480 nm and 545 nm, following excitation at 440 nm. Data are expressed as dR/R0, where R=fret ratio at time t (sec), R0=fret ratio at time zero, and dR=R−R0. […]

Row | binding of Hsp20 to peptide on array [1] | Molecule | pS16-Hsp20 levels relative to DMSO only controls [2] | cAMP FRET response, HSP20-targeted reporter compared with cytosolic probe [5] | further results
1 | shortest size | Ac-GFK-NH2 (Ac-Gly-Phe-Lys-NH2) [Peptide 17] | indistinguishable from DMSO only controls | – | –
2 | – | COc1ccc(C2CNC(=O)C2)cc1OC1CCCC1 (stereo not drawn) [rolipram] | – | clearly greater in the HSP20 targeted reporter | isoprenaline-stimulated HSP20 phosphorylation ([3]; rolipram pre-treatment then isoprenaline 1 μM): increased isoprenaline-stimulated HSP20 phosphorylation; phospho-HSP20 levels compared to resting cells ([3]; rolipram treatment alone): clear increase in phospho-HSP20 levels; phospho-HSP20 levels ([4]; cardiomyocytes, PDE4 inhibition alone): marked increase in phospho-HSP20 levels; isoprenaline-induced increase in endogenous phospho-HSP20 levels ([4]; neonatal cardiomyocytes, rolipram pre-treatment): markedly augmented
3 | shortest size | Ac-KLL-NH2 (Ac-Lys-Leu-Leu-NH2) [Peptide 10] | indistinguishable from DMSO only controls | – | –
4 | shown to bind HSP20 | Ac-FQNLTR-NH2 [Peptide 5] | inability | – | –
5 | – | CC(C)Cn1c(=O)n(C)c(=O)c2[nH]cnc21 [IBMX] | – | identical maximal response | –
